Experimental data taken from patent publication US20100158808A1, “Altered Activity of Toll-Like Receptors” (priority 2003, published 2010).

Legend:
mice = assay: Experimental shock model (SIRS), D-galactosamine, i.p. injection; assay type: in vivo; details: for Survival in shock model: mice, i.p. with D-galactosamine
Procedure: Experimental shock model. Age- and sex-matched mice were injected with 5 mg of HS, 5 μg of LPS, 5 μg of Limulus anti-LPS factor, 5 mg of chondroitin sulfate, 200 U (−5 mg) heparin, 150 μg of CpG DNA, 1.5 U of elastase, or PBS mixed with 20 mg of D-galactosamine in a total volume of 500 μl of PBS by i.p. injection as previously described (Franks et al. (1991) Infect. Immun. 59:2609). Concentrations of HS and elastase were calculated by weight of lyophilized powder, and the doses used were near the LD50 based on dose-response experiments. In some experiments, the agonist was mixed with 5 or 20 μg of Limulus anti-LPS factor before injection. For some injections, enzymes were boiled at 100° C. for 60 minutes and vortexed vigorously, or preincubated with elastase inhibitor-1 for 4 hours at room temperature and then mixed with D-galactosamine before injection. Mice were monitored every hour for 48 hours and then euthanized.
During sepsis, Gram-negative bacteria shed LPS, which activates TLR4 on cells that then release inflammatory cytokines mediating systemic inflammation and death (Beutler (2000) Curr. Opin. Immunol. 12:20). To determine whether soluble HS can induce a model of systemic inflammatory response syndrome (SIRS) via activation of TLR4 in mice, HS was administered by i.p. injection to TLR4 wild type and mutant mice. This mouse model system has been used to study shock and a sepsis-like syndrome in response to microbial toxins (Galanos et al. (1979) Proc. Natl. Acad. Sci. USA 76:5939). […] Moreover, the observed responses were not due to contamination of HS by LPS, since the HS used was not contaminated with LPS.

TLR4/MD2 complex = target: T1, TLR4/MD2 complex (Mus musculus, UniProt Q9JHF9+Q9QUK6); assay: Cell surface expression of TLR4/MD2 in HEK/TLR4(+) cells by flow cytometry; assay type: cell-based, murine
T1 construct: expressed in transfected cells; host or cells: HEK 293 clone HEK/TLR4(+)
T1 sequence (Q9QUK6 26-835): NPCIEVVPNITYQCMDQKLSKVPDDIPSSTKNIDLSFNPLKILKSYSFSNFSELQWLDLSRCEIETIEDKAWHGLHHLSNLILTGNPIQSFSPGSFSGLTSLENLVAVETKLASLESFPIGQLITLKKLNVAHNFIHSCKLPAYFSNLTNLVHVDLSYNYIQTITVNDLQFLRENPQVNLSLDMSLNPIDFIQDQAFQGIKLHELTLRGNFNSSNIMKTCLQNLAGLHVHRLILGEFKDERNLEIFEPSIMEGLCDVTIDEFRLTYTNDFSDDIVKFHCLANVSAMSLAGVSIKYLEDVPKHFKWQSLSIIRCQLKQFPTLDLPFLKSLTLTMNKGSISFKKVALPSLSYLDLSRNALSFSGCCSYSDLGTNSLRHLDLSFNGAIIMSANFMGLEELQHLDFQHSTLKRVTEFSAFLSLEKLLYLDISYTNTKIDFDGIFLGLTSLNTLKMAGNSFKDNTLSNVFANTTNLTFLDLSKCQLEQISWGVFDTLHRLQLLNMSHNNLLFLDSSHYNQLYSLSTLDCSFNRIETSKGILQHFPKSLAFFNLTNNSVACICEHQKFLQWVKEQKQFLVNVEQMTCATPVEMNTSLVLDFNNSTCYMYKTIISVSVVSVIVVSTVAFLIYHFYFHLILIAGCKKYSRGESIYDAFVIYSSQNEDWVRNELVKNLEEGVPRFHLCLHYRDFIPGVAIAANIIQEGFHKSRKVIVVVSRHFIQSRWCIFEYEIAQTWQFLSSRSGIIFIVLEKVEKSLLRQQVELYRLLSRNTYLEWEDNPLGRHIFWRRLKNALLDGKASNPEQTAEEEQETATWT
T1 sequence (Q9JHF9 19-160): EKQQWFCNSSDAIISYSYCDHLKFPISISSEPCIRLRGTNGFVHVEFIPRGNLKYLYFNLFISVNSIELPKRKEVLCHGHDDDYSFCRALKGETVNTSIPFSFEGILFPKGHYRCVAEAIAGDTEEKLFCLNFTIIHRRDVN
Procedure: FIG. 2A is a graph plotting the level of reporter activity in HEK/TLR4(+) cells transfected with NFκB- and control-luciferase reporter plasmids and then stimulated with intact HS or LPS, or with HS or LPS that had been treated with nitrous acid (HNO2) at pH 4.0 or pH 1.5. Controls were treated with PBS vehicle. […] FIG. 2C is a graph showing the effect of PBS, HS, depolymerized HS (nitrous acid, pH 1.5), and recombinant human IL-1α on cell surface expression of TLR4/MD2 in HEK/TLR4(+) cells. Expression of TLR4 on the cell surface was determined by flow cytometry using a monoclonal antibody specific to the TLR4/MD2 complex. Values are the mean of triplicate wells and are representative of three separate experiments.
To determine whether the effect of HS occurred through specific action on TLR4, surface expression of the TLR4/MD2 complex on cells treated with HS was examined. […] Thus, HEK/TLR4(+) cells responded to HS by activating NFκB and mobilizing receptor complexes.

TLR4 = target: T2, TLR4 (Mus musculus, UniProt Q9JHF9+Q9QUK6); assay: NFκB-luciferase reporter assay in HEK 293 cells stably expressing TLR4, MD2 and/or CD14; assay type: cell-based, murine; design: expressed in transfected cells; host or cells: HEK 293; details: HEK 293 cells lacking TLR4 and MD2 or CD14
T2 sequence (Q9QUK6 26-835): T1 sequence (Q9QUK6 26-835)
T2 sequence (Q9JHF9 19-160): T1 sequence (Q9JHF9 19-160)
Procedure: Model ECM environment. Tissue culture plates were coated with ECM as follows. PAEC were seeded into 6-well (3×10^5 cells/well), 24-well (5×10^4 cells/well) or 100 mm (2×10^5 cells) fibronectin-coated tissue culture plates (BD Biosciences, San Jose, Calif.) in DMEM (Invitrogen) containing 10% fetal bovine serum supplemented with penicillin and streptomycin and 4% w/v of Dextran 40. The cell cultures were incubated at 37° C. in 5% CO2 humidified atmosphere for seven days and were supplemented with […] on day three and day five. After 7 days, endothelial cells were washed once with phosphate buffered saline (PBS) and lysed by exposure to 0.5% w/v Triton X-100 and 20 mM NH4OH in PBS (pH 7.4) at 37° C. for 20 minutes (Bonifacino, 1998). The wells were then washed 4 times with PBS (pH 7.4) and inspected microscopically to ensure removal of the cells. Plates were used immediately or were stored in PBS (pH 7.4) with […] at 4° C.
HEK 293 cells were stably transfected with the TLR4 and MD2 or CD14 expression plasmids using Superfect (Qiagen, Valencia, Calif.) following the manufacturer's instructions. HEK 293 cells expressing TLR4 and MD2 or CD14 were obtained by culturing the transfected cells with appropriate antibiotic selection medium, and were cloned by limiting dilution in the selection medium. HEK 293 cells expressing TLR4, MD2 and CD14 were generated by transfecting HEK 293 cells that expressed TLR4 and MD2 with the CD14 expression plasmid, and selecting clones using appropriate antibiotic containing medium. Cell lines expressing TLR4 and MD2 and/or CD14 were then maintained in DMEM supplemented with 10% fetal bovine serum and the appropriate selection antibiotics. Control cell lines were transfected with empty expression vectors and incubated in selection conditions as described above. Selected clones were tested for cell surface expression of the TLR4/MD2 complex and CD14 by flow cytometry using monoclonal antibodies specific for the TLR4/MD2 complex or CD14.
NFκB-luciferase reporter assays. Activation of NFκB was measured using a NFκB-luciferase reporter assay. HEK 293 cell lines stably expressing TLR4, MD2 and/or CD14, or control cells were seeded into 24 well tissue culture plates (2×10^5 cells/well) in 1.0 ml DMEM containing 10% fetal bovine serum and penicillin and streptomycin. The cells were allowed to adhere to the culture wells at 37° C. overnight and were then transfected with […] NFκB-firefly-luciferase using Superfect Transfection Reagent (Qiagen). Following transfection, the cells were washed once with phosphate buffered saline and cultured for 24 hours at 37° C. in 1.0 ml DMEM containing 0.5% fetal bovine serum. After various treatments, the culture medium was aspirated and the cells were washed once with PBS. The cells were lysed in […] Passive Lysis Buffer (Promega) with rocking at room temperature for 15 minutes. Renilla- and Firefly-luciferase were assayed simultaneously using the Dual-Luciferase Reporter Assay System (Promega) and a TD-20/20 luminometer (Turner Designs, Sunnyvale, Calif.). Activation of NFκB was reported as a ratio of the firefly luciferase activity to the constitutively expressed Renilla luciferase internal control, and is the mean of triplicate wells.
To determine whether and under what conditions HS stimulates TLR4, various combinations of TLR4, MD2 and CD14, components of the putative TLR4 receptor complex, were stably expressed in HEK 293 cells and the effect of HS on TLR4 signaling in the transfected cells was examined (FIG. 1). The HEK 293 cells expressing receptor components were transiently transfected with a NFκB-firefly luciferase reporter construct along with a Renilla-luciferase internal control reporter construct. […]

heparin
Survival in shock model (mice): survived

recombinant human IL-1α: recombinant human IL-1α, activates NFκB via the IL-1 receptor
Change in surface expression of TLR4/MD2 (TLR4/MD2 complex): did not change
Activation of NFκB-luciferase reporter (TLR4): activated

Boc-Ala-Ala-Ala-NHO-Bz [elastase inhibitor-1]
Reduction of the death rate after elastase injection (mice; elastase preincubated with elastase inhibitor-1 for 4 hours): 50%

chondroitin sulfate
Survival in shock model (mice): all but one mouse
